In paper PMC6151695, “Novel Selective Estrogen Receptor Ligand Conjugates Incorporating Endoxifen-Combretastatin and Cyclofenil-Combretastatin Hybrid Scaffolds: Synthesis and Biochemical Evaluation” (Molecules : A Journal of Synthetic Chemistry and Natural …, 2017):
Values joined by “and” are separate entries in the source; they are usually repeats but may differ in a detail not shown here. Identical values can stand only once. “Also recorded” adds a separate entry of the source. Like-named read-outs stand apart in the source and are kept apart here.

Assays:
[1] = tested on: MCF-7 human breast cancer cell line; test: Alamar Blue assay for antiproliferative effects; type: cell-based; conditions: for IC50: read-out: IC50 (μM), antiproliferative effects
MCF-7 cells = test: Flow cytometry (propidium iodide) cell cycle and apoptosis analysis in MCF-7; type: cell-based, human; conditions: MCF-7, 10 µM, 72 h
Method: Flow cytometry with propidium iodide stained cells was carried out to analyse the percentage of cells in each stage of the cell cycle and the number of apoptotic or dead cells. Samples were treated for 72 h at 10 µM. […] […].
MCF-7 cells were seeded at a density of 5 × 10^4 cells/well in a 12-well plate and treated with the indicated compounds for 72 h. Samples were then centrifuged at 650× g for 5 min and resuspended in 100 µL ice-cold PBS. Ice-cold 70% (v/v) ethanol (1 mL) was then added to fix the samples overnight at 4 °C. Samples were subsequently centrifuged at 800× g for 10 min and resuspended in 200 µL PBS. RNase A (12.5 µL of 10 mg/mL) and propidium iodide (37.5 µL of 1 mg/ mL) were added to samples which were then incubated for 30 min at 37°C. Cell cycle analysis was performed at 488 nm using a FACS Calibur flow cytometer (Becton Dickinson, Franklin Lakes, NJ, USA). The Macintosh-based application CellQuest was then used to analyse the data of 10,000 gated cells once cell debris had been excluded. Data points represent the mean ± S.E.M. of three independent experiments.

[2] = Homo sapiens, MCF7, 72 h, MCF-7, 72 h, Alamar Blue
[3] = Homo sapiens, MCF7, MCF-7, at 1 μM, read-out: growth inhibition
[4] = Homo sapiens, MCF7, read-out: growth inhibition

Structure (SMILES) | IC50 [1, 2] [µM] | also measured
CCC(=C(c1ccc(O)cc1)c1ccc(OCCN(C)C(=O)/C(=C/c2ccc(O)c(O)c2)c2cc(OC)c(OC)c(OC)c2)cc1)c1ccccc1 (mixture of isomers) [Compound 3e, (E/Z)-3-(3,4-Dihydroxyphenyl)-N-(2-(4-((Z)-1-(4-hydroxyphenyl)-2-phenylbut-1-en-1-yl)phenoxy)ethyl)-N-methyl-2-(3,4,5-trimethoxyphenyl)acrylamide] | > 50 | –
COc1ccc(/C=C(/C(=O)N(C)CCOc2ccc(C(=C3CCCCC3)c3ccc(O)cc3)cc2)c2cc(OC)c(OC)c(OC)c2)cc1O [Compound 13b, (E)-N-(2-(4-(Cyclohexaneylidene(4-hydroxyphenyl)methyl)phenoxy)ethyl)-3-(3-hydroxy-4-methoxyphenyl)-N-methyl-2-(3,4,5-trimethoxyphenyl)acrylamide] | 2.01 | –
CCC(=C(c1ccc(O)cc1)c1ccc(OCCN(C)C(=O)/C(=C/c2cccc(O)c2)c2cc(OC)c(OC)c(OC)c2)cc1)c1ccccc1 (mixture of isomers) [Compound 3f, (E/Z)-3-(3-Hydroxyphenyl)-N-(2-(4-((Z)-1-(4-hydroxyphenyl)-2-phenylbut-1-en-1-yl)phenoxy)ethyl)-N-methyl-2-(3,4,5-trimethoxyphenyl)acrylamide] | > 50 | –
CCC(=C(c1ccc(O)cc1)c1ccc(OCCN(C)C(=O)/C(=C/c2cc(OC)c(OC)c(OC)c2)c2cc(OC)cc(OC)c2)cc1)c1ccccc1 (mixture of isomers) [Compound 3b, (E/Z)-2-(3,5-Dimethoxyphenyl)-N-(2-(4-((Z)-1-(4-hydroxyphenyl)-2-phenylbut-1-en-1-yl)phenoxy)ethyl)-N-methyl-3-(3,4,5-trimethoxyphenyl)acrylamide] | > 50 | –
COc1ccc(/C=C(/C(N)=O)c2cc(OC)c(OC)c(OC)c2)cc1 [Compound 3p, (E)-3-(4-Methoxyphenyl)-2-(3,4,5-trimethoxyphenyl)acrylamide] | – | inhibition at 1 µM [1, 3]: 60%
CNCCOc1ccc(C(=C2CCCCC2)c2ccc(O)cc2)cc1 [Compound 11b, 4-(Cyclohexaneylidene(4-(2-(methylamino)ethoxy)phenyl)methyl)phenol] | 4.78 | –
CCC(=C(c1ccc(O)cc1)c1ccc(OCCN(C)C(=O)/C(=C/c2ccc(OC)c(OC)c2OC)c2cc(OC)c(OC)c(OC)c2)cc1)c1ccccc1 (mixture of isomers) [Compound 3h, (E/Z)-N-(2-(4-((Z)-1-(4-Hydroxyphenyl)-2-phenylbut-1-en-1-yl)phenoxy)ethyl)-N-methyl-3-(2,3,4-tri-methoxyphenyl)-2-(3,4,5-trimethoxyphenyl)acrylamide] | > 50 | –
CC/C(=C(\c1ccc(O)cc1)c1ccc(OCCN(C)C(=O)C=Cc2ccc(OC)c(O)c2)cc1)c1ccccc1 (mixture of isomers) [Compound 5a, (E/Z)-3-(3-Hydroxy-4-methoxyphenyl)-N-(2-(4-((Z)-1-(4-hydroxyphenyl)-2-phenylbut-1-en-1-yl)phenoxy)-ethyl)-N-methylacrylamide] | – | IC50 ([1]; MCF-7, 72 h, Alamar Blue): 51.3 µM
CCN(CC)C(=O)/C(=C/c1ccc(OC)c(O)c1)c1cc(OC)c(OC)c(OC)c1 [Compound 3o, (E)-N,N-diethyl-3-(3-hydroxy-4-methoxyphenyl)-2-(3,4,5-trimethoxyphenyl) acrylamide] | – | inhibition at 1 µM [1, 4]: 16%
CNCCOc1ccc(C(=C2CCCC2)c2ccc(O)cc2)cc1 [Compound 11a, 4-(Cyclopentylidene(4-(2-(methylamino)ethoxy)phenyl)methyl)phenol] | 3.09 | –
CCC(=C(c1ccc(O)cc1)c1ccc(OCCN(C)C(=O)/C(=C/c2ccc(OC)c([N+](=O)[O-])c2)c2cc(OC)c(OC)c(OC)c2)cc1)c1ccccc1 (mixture of isomers) [Compound 3a, (E/Z)-N-(2-(4-((E)-1-(4-Hydroxyphenyl)-2-phenylbut-1-en-1-yl)phenoxy)ethyl)-3-(4-methoxy-3-nitro-phenyl)-N-methyl-2-(3,4,5-trimethoxyphenyl)acrylamide] | – | IC50 ([1]; Homo sapiens, MCF7, 72 h): > 50 µM
CCC(=C(c1ccc(O)cc1)c1ccc(OCCN(C)C(=O)/C(=C/c2cc(OC)c(OC)c(OC)c2)c2cc(OC)c(OC)c(OC)c2)cc1)c1ccccc1 (mixture of isomers) [Compound 3c, (E/Z)-N-(2-(4-((Z)-1-(4-Hydroxyphenyl)-2-phenylbut-1-en-1-yl)phenoxy)ethyl)-N-methyl-2,3-bis(3,4,5-trimethoxyphenyl)acrylamide] | > 50 | –
COc1ccc(/C=C(/C(=O)N(C)CCOc2ccc(C(=C3CCCCCC3)c3ccc(O)cc3)cc2)c2cc(OC)c(OC)c(OC)c2)cc1O [Compound 13c, (E)-N-(2-(4-(Cycloheptylidene(4-hydroxyphenyl)methyl)phenoxy)ethyl)-3-(3-hydroxy-4-methoxyphenyl)-N-methyl-2-(3,4,5-trimethoxyphenyl)acrylamide] | 2.5 | apoptosis (MCF-7 cells): 20%
CCC(=C(c1ccc(O)cc1)c1ccc(OCCN(C)C(=O)/C(=C/c2ccc(OC)c(O)c2)c2cc(OC)cc(OC)c2)cc1)c1ccccc1 (mixture of isomers) [Compound 3d, (E/Z)-2-(3,5-Dimethoxyphenyl)-3-(3-hydroxy-4-methoxyphenyl)-N-(2-(4-((Z)-1-(4-hydroxyphenyl)-2-phenylbut-1-en-1-yl)phenoxy)ethyl)-N-methylacrylamide] | > 50 | –
CCC(=C(c1ccc(O)cc1)c1ccc(OCCN(C)C(=O)CCc2cc(OC)c(OC)c(OC)c2)cc1)c1ccccc1 (mixture of isomers) [Compound 5d, N-(2-(4-((E/Z)-1-(4-Hydroxyphenyl)-2-phenylbut-1-enyl)phenoxy)ethyl)-3-(3,4,5-trimethoxyphenyl)-N-methylpropanamide] | > 100 | IC50 ([1]; MCF-7, 72 h, Alamar Blue): > 50 µM
CCN(CC)C(=O)/C(=C/c1ccc(OC)cc1)c1cc(OC)c(OC)c(OC)c1 [Compound 3q, (E)-N,N-Diethyl-3-(4-methoxyphenyl)-2-(3,4,5-trimethoxyphenyl)acrylamide] | – | inhibition at 1 µM [1, 3]: 25%
CCC(=C(c1ccccc1)c1ccc(OCCN(C)C(=O)CCC(=O)O)cc1)c1ccccc1 [Compound 14a, N-{2-[4-(1,2-Diphenylbut-1-enyl)phenoxy]ethyl}-N-methylsuccinamic acid] | > 50 | antiproliferative activity (in words) ([1]; MCF-7): very low antiproliferative activity; also recorded: no significant antiproliferative activity
CCC(=C(c1ccc(O)cc1)c1ccc(OCCN(C)C(=O)/C(=C/c2cc(OC)c(O)c(OC)c2)c2cc(OC)c(OC)c(OC)c2)cc1)c1ccccc1 (mixture of isomers) [Compound 3j, (E/Z)-3-(4-Hydroxy-3,5-dimethoxyphenyl)-N-(2-(4-((Z)-1-(4-hydroxyphenyl)-2-phenylbut-1-en-1-yl)-phenoxy)ethyl)-N-methyl-2-(3,4,5-trimethoxyphenyl)acrylamide] | 11.8 | IC50 ([1]; MCF-7, 72 h, Alamar Blue): 11.8 µM
CCC(=C(c1ccc(O)cc1)c1ccc(OCCN(C)C(=O)CCc2ccc(OC)c(O)c2)cc1)c1ccccc1 (mixture of isomers) [Compound 5b, (E/Z)-3-(3-hydroxy-4-methoxyphenyl)-N-(2-(4-(1-(4-hydroxyphenyl)-2-phenylbut-1-en-1-yl)phenoxy)ethyl)-N-methylpropanamide] | – | IC50 ([1]; MCF-7, 72 h, Alamar Blue): 46.7 µM and 46.8 µM
COc1ccc(/C=C(/C(=O)N(C)CCOc2ccc(C(=C3CCCC3)c3ccc(O)cc3)cc2)c2cc(OC)c(OC)c(OC)c2)cc1O [Compound 13a, (E)-N-(2-(4-(Cyclopentylidene(4-hydroxyphenyl)methyl)phenoxy)ethyl)-3-(3-hydroxy-4-methoxyphenyl)-N-methyl-2-(3,4,5-trimethoxyphenyl)acrylamide] | – | IC50 ([1]; Homo sapiens, MCF7, 72 h): 1.38 µM
COc1ccc(/C(=C\c2cc(OC)c(OC)c(OC)c2)C(N)=O)cc1 [Compound 3n, (E)-2-(4-Methoxyphenyl)-3-(3,4,5-trimethoxyphenyl)acrylamide] | – | inhibition at 1 µM [1, 4]: 20%
CCC(=C(c1ccc(O)cc1)c1ccc(OCCN(C)C(=O)/C(=C/c2ccc(OC)c(OC)c2)c2cc(OC)c(OC)c(OC)c2)cc1)c1ccccc1 (mixture of isomers) [Compound 3g, (E/Z)-3-(3,4-Dimethoxyphenyl)-N-(2-(4-((Z)-1-(4-hydroxyphenyl)-2-phenylbut-1-en-1-yl)phenoxy)ethyl)-N-methyl-2-(3,4,5-trimethoxyphenyl)acrylamide] | > 50 | –
CCC(=C(c1ccc(O)cc1)c1ccc(OCCN(C)C(=O)/C(=C/c2ccc(C)s2)c2cc(OC)c(OC)c(OC)c2)cc1)c1ccccc1 (mixture of isomers) [Compound 3l, (E/Z)-N-(2-(4-((E)-1-(4-Hydroxyphenyl)-2-phenylbut-1-en-1-yl)phenoxy)ethyl)-N-methyl-3-(5-methyl-thiophen-2-yl)-2-(3,4,5-trimethoxyphenyl)acrylamide] | > 50 | –
CCC(=C(c1ccc(O)cc1)c1ccc(OCCN(C)C(=O)/C=C/c2cc(OC)c(OC)c(OC)c2)cc1)c1ccccc1 (mixture of isomers) [Compound 5c, (E/Z)-N-(2-(4-((Z)-1-(4-Hydroxyphenyl)-2-phenylbut-1-en-1-yl)phenoxy)ethyl)-N-methyl-3-(3,4,5-tri-methoxyphenyl)acrylamide] | > 100 | IC50 ([1]; MCF-7, 72 h, Alamar Blue): > 50 µM
